Results taken from US12084472B2 (Ardelyx, Inc., priority 2015, dated 2024).

target: T1, human TGR5 (Homo sapiens, UniProt Q8TDU6); experiment: Cell-based TGR5 assay (cAMP generation, HTRF); conditions: HEK293 cells stably transfected with human TGR5; cAMP by HTRF; 30 minutes at 37° C.; read-out: pEC50 Human TGR5 (converted)
T1 construct: expressed in transfected cells; host or cells: HEK293
T1 sequence (Q8TDU6 1-330): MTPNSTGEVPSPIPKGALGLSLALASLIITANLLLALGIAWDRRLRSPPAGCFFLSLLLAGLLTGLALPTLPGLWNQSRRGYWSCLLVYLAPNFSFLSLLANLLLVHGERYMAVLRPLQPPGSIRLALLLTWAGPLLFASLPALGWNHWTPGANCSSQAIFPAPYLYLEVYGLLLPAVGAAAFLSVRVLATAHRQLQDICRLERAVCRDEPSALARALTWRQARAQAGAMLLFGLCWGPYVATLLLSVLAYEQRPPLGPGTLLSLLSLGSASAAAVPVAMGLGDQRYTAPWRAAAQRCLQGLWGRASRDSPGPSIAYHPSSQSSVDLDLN
Summary of the method: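 First, compounds in 3-fold serial dilution were placed in HBSS with 10 mM HEPES pH 7.4 and 0.5 mM IBMX. Next, human TGR5-expressing HEK293 cells were added and incubated 30 min at 37° C. Finally, cAMP was detected by HTRF and pEC50 derived by logistic fitting.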

`CC(C)CN(CCCCNC(=O)NC[C@H](O)[C@@H](O)[C@H](O)[C@H](O)CO)S(=O)(=O)c1ccc(Cl)c(COC2(c3cnccc3-c3ccccc3OC3CC3)CC2)c1` [Compound I-762, 4-chloro-3-((1-(4-(2-cyclopropoxyphenyl)pyridin-3-yl)cyclopropoxy)methyl)-N-isobutyl-N-(4-(3-((2S,3R,4R,5R)-2,3,4,5,6-pentahydroxyhexyl)ureido)butyl)benzenesulfonamide] and `CCN(CCCCNC(=O)NC[C@H](O)[C@@H](O)[C@H](O)[C@H](O)CO)S(=O)(=O)c1ccc(Cl)c(COC2(c3cnccc3-c3ccccc3OC3CC3)CC2)c1` [Compound I-390, 4-chloro-3-((1-(4-(2-cyclopropoxyphenyl)pyridin-3-yl)cyclopropoxy)methyl)-N-ethyl-N-(4-(3-((2S,3R,4R,5R)-2,3,4,5,6-pentahydroxyhexyl)ureido)butyl) benzenesulfonamide] cannot be ordered by EC50: < 100 nM for the first, < 100 nM for the second.

`CCN(C[C@H](O)[C@@H](O)[C@H](O)[C@H](O)CO)C(=O)NCCCCc1cc(Cl)c(COC2(c3cnccc3-c3ccccc3OC3CC3)CC2)cc1C` [Compound I-94, 3-(4-(5-chloro-4-((1-(4-(2-cyclopropoxyphenyl)pyridin-3-yl)cyclopropoxy)methyl)-2-methylphenyl)butyl)-1-ethyl-1-((2S,3R,4R,5R)-2,3,4,5,6-pentahydroxyhexyl)urea] and `Cc1cc(COC2(c3cnccc3-c3ccccc3OC3COC3)CC2)c(Cl)cc1CCCCNC(=O)NC[C@H](O)[C@@H](O)[C@H](O)[C@H](O)CO` (stereo in doubt) [Compound I-190, 1-(4-{5-chloro-2-methyl-4-[(1-{4-[2-(oxetan-3-yloxy)phenyl]pyridin-3-yl}cyclopropoxy)methyl]phenyl}butyl)-3-[(2S,3R,4R,5R)-2,3,4,5,6-pentahydroxyhexyl]urea] cannot be ordered by EC50: < 100 nM for the first, < 100 nM for the second.

`Cc1cc(CNC2(c3cnccc3-c3ccccc3OC3CC3)CC2)c(Cl)cc1CCCCC(=O)NC[C@H](O)[C@@H](O)[C@H](O)[C@H](O)CO` [Compound I-142, 5-{5-chloro-4-[({1-[4-(2-cyclopropoxyphenyl)pyridin-3-yl]cyclopropyl}amino)methyl]-2-methylphenyl}-N-[(2S,3R,4R,5R)-2,3,4,5,6-pentahydroxyhexyl]pentanamide] and `O=C(CCCCc1ccc(Cl)c(COC2(c3cnccc3-c3ccccc3OC3CC3)CC2)c1)NC[C@H](O)[C@@H](O)[C@H](O)[C@H](O)CO` (stereo in doubt) [Compound I-231, 5-[4-chloro-3-({1-[4-(2-cyclopropoxyphenyl)pyridin-3-yl]cyclopropoxy}methyl)phenyl]-N-[(2S,3R,4R,5R)-2,3,4,5,6-pentahydroxyhexyl]pentanamide] cannot be ordered by EC50: < 100 nM for the first, < 100 nM for the second.

First: O=C(CCCSc1ccc(Cl)c(COC2(c3cnccc3-c3ccccc3OC3CC3)CC2)c1)N(CCCCCO)C[C@H](O)[C@@H](O)[C@H](O)[C@H](O)CO [Compound I-684, 4-f{[4-chloro-3-({1-[4-(2-cyclopropoxyphenyl)pyridin-3-yl]cyclopropoxy}methyl)phenyl]sulfanyl}-N-(5-hydroxypentyl)-N-[(2S,3R,4R,5R)-2,3,4,5,6-pentahydroxyhexyl]butanamide]
Second: CS(=O)(=O)CCCN(CCCCSc1ccc(Cl)c(COC2(c3cnccc3-c3ccccc3OC3CC3)CC2)c1)C(=O)[C@@H](O)[C@@H](O)[C@H](O)[C@@H](O)CO [Compound I-523, (2S,3S,4R,5S)-N-(4-{[4-chloro-3-({1-[4-(2-cyclopropoxyphenyl)pyridin-3-yl]cyclopropoxy}methyl)phenyl]sulfanyl}butyl)-2,3,4,5,6-pentahydroxy-N-(3-methanesulfonylpropyl)hexanamide]
The EC50 of the first is higher: 126 to 1000 nM for the first, < 100 nM for the second.

First: O=C([C@@H](O)[C@@H](O)[C@H](O)[C@@H](O)CO)N(CCCCSc1ccc(Cl)c(COC2(c3cnccc3-c3ccccc3OC3CC3)CC2)c1)C1CCS(=O)(=O)CC1 [Compound I-569, (2S,3S,4R,5S)-N-(4-{[4-chloro-3-({1-[4-(2-cyclopropoxyphenyl)pyridin-3-yl]cyclopropoxy}methyl)phenyl]sulfanyl}butyl)-N-(1,1-dioxo-1λ^6-thian-4-yl)-2,3,4,5,6-pentahydroxyhexanamide]
Second: CC(CCCN(C(=O)[C@@H](O)[C@@H](O)[C@H](O)[C@@H](O)CO)C1CCS(=O)(=O)CC1)c1ccc(Cl)c(COC2(c3cnccc3-c3ccccc3OC3CC3)CC2)c1 (stereo partly drawn) [Compound I-311, (2S,3S,4R,5S)-N-{4-[4-chloro-3-({1-[4-(2-cyclopropoxyphenyl)pyridin-3-yl]cyclopropoxy}methyl)phenyl]pentyl}-N-(1,1-dioxo-1λ^6-thian-4-yl)-2,3,4,5,6-pentahydroxyhexanamide]
The EC50 of the first is higher: 126 to 1000 nM for the first, < 100 nM for the second.

First: Clc1ccc(COC2(c3cnccc3-c3ccccc3OC3CC3)CC2)c(Cl)c1 [Compound I-48, 4-(2-cyclopropoxyphenyl)-3-{1-[(2,4-dichlorophenyl)methoxy]cyclopropyl}pyridine]
Second: COc1cc(Cl)c(COC2(c3cnccc3-c3ccccc3OC3CC3)CC2)cc1S(=O)(=O)N(C)C [Compound I-730, 4-chloro-5-([1-[4-(2-cyclopropoxyphenyl)pyridin-3-yl]cyclopropoxy]methyl)-2-methoxy-N,N-dimethylbenzene-1-sulfonamide]
The EC50 of the first is higher: 126 to 1000 nM for the first, < 100 nM for the second.

`CC(CCCC(=O)N1CCC(NC[C@H](O)[C@@H](O)[C@H](O)[C@H](O)C(=O)O)CC1)c1ccc(Cl)c(CNC2(c3cnccc3-c3ccccc3OC3CC3)CC2)c1` (stereo partly drawn) [Compound I-318, (2S,3S,4R,5S)-6-{[1-(5-{4-chloro-3-[({1-[4-(2-cyclopropoxyphenyl)pyridin-3-yl]cyclopropyl}amino)methyl]phenyl}hexanoyl)piperidin-4-yl]amino}-2,3,4,5-tetrahydroxyhexanoic acid] and `CC(CCCN(CCS(C)(=O)=O)C(=O)[C@@H](O)[C@@H](O)[C@H](O)[C@@H](O)CO)c1ccc(Cl)c(CNC2(c3cnccc3-c3ccccc3OC3CC3)CC2)c1` (stereo partly drawn) [Compound I-289, (2S,3S,4R,5S)-N-(4-{4-chloro-3-[({1-[4-(2-cyclopropoxyphenyl)pyridin-3-yl]cyclopropyl}amino)methyl]phenyl}pentyl)-2,3,4,5,6-pentahydroxy-N-(2-methanesulfonylethyl)hexanamide] cannot be ordered by EC50: < 100 nM for the first, < 100 nM for the second.

First: CCc1ccc(SCCCC(=O)NC[C@H](O)[C@@H](O)[C@H](O)[C@H](O)CO)cc1COC1(c2cnccc2-c2ccccc2OC2CC2)CC1 [Compound I-497, 4-[[3-([l-[4-(2-Cyclopropoxyphenyl)pyridin-3-yl]cyclopropoxy]methyl)-4-ethylphenyl]sulfanyl]-N-[(2S,3R,4R,5R)-2,3,4,5,6-pentahydroxyhexyl]butanamide]
Second: O=C(NCCCCC[S+]([O-])c1ccc(Cl)c(COC2(c3cnccc3-c3ccccc3OC3CC3)CC2)c1)NC[C@H](O)[C@@H](O)[C@H](O)[C@H](O)CO (stereo partly drawn) [Compound I-639, 1-{5-[4-chloro-3-({1-[4-(2-cyclopropoxyphenyl)pyridin-3-yl]cyclopropoxy}methyl)benzenesulfinyl]pentyl}-3-[(2S,3R,4R,5R)-2,3,4,5,6-pentahydroxyhexyl]urea]
The EC50 of the first is higher: 126 to 1000 nM for the first, < 100 nM for the second.

First: OC[C@@H](O)[C@@H](O)[C@H](O)[C@@H](O)CNCCCCc1cc(Cl)c(COC2(c3cnccc3-c3ccccc3OC3CC3)CC2)cc1Cl [Compound I-66, (2R,3R,4R,5S)-6-(4-(2,5-dichloro-4-((1-(4-(2-cyclopropoxyphenyl)pyridin-3-yl)cyclopropoxy)methyl)phenyl)butylamino)hexane-1,2,3,4,5-pentaol]
Second: O=C(NCCCCNS(=O)(=O)c1ccc(Cl)c(COC2(c3cnccc3-c3ccccc3OC3CC3)CC2)c1)NC[C@H](O)[C@@H](O)[C@H](O)[C@H](O)CO (stereo in doubt) [Compound I-401, 1-{4-[4-chloro-3-({1-[4-(2-cyclopropoxyphenyl)pyridin-3-yl]cyclopropoxy}methyl)benzenesulfonamido]butyl}-3-[(2S,3R,4R,5R)-2,3,4,5,6-pentahydroxyhexyl]urea]
The EC50 of the first is higher: 126 to 1000 nM for the first, < 100 nM for the second.

`C[C@H](CCCC(=O)O)c1ccc(Cl)c(CNC2(c3cnccc3-c3ccccc3OC3CC3)CC2)c1` (single isomer, unassigned) [Compound I-247] and `CCNC(=O)[C@H](N)CCCCNS(=O)(=O)c1ccc(Cl)c(COC2(c3cnccc3-c3ccccc3OC3CC3)CC2)c1` [Compound I-481, (2R)-2-amino-6-[4-chloro-3-({1-[4-(2-cyclopropoxyphenyl)pyridin-3-yl]cyclopropoxy}methyl)benzenesulfonamido]-N-ethylhexanamide] cannot be ordered by EC50: < 100 nM for the first, < 100 nM for the second.

`O=C(NCCOCC[S+]([O-])c1ccc(Cl)c(COC2(c3cnccc3-c3ccccc3OC3CC3)CC2)c1)NC[C@H](O)[C@@H](O)[C@H](O)[C@H](O)CO` (stereo partly drawn) [Compound I-491, 1-[2-(2-[[4-chloro-3-([1-[4-(2-cyclopropoxyphenyl)pyridin-3-yl]cyclopropoxy]methyl)benzene]sulfinyl]ethoxy)ethyl]-3-[(2S,3R,4R,5R)-2,3,4,5,6-pentahydroxyhexyl]urea] and `CC(=O)NCCCCN(CCCSc1ccc(Cl)c(CNC2(c3cnccc3-c3ccccc3OC3CC3)CC2)c1)C(=O)[C@@H](O)[C@@H](O)[C@H](O)[C@@H](O)CO` [Compound I-602, (2S,3S,4R,5S)-N-[3-({4-chloro-3-[({1-[4-(2-cyclopropoxyphenyl)pyridin-3-yl]cyclopropyl}amino)methyl]phenyl}sulfanyl)propyl]-N-(4-acetamidobutyl)-2,3,4,5,6-pentahydroxyhexanamide] fall in the same range of EC50: 126 to 1000 nM for the first, 126 to 1000 nM for the second.
